15 compounds from PubChem BioAssay (NCI) can be followed below.

Among the test systems are DU-145 prostate; PC-3 prostate; BT-549 breast; T-47D breast; OVCAR-5 ovarian; EKVX NSCLC.
Holding throughout (experiment): inhibition of tumour cell growth, NCI panel, 48 h

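Where inhibition never reached the appropriate level, the endpoint shown equals the highest concentration tested. Otherwise, values were interpolated linearly from a five-concentration, 48-hour dose response in 96-well plates. Abbreviation: GI50, concentration required for 50% inhibition of growth. TGI denotes the concentration required for complete inhibition of growth.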

Take `O=C(/C=C/OC(=O)c1cccc(Cl)c1)c1ccc(Cl)cc1`: the GI50 is 44 µM with DU-145 prostate; 30.7 µM with PC-3 prostate; 30.3 µM in the experiment on BT-549 breast; over 48.8 µM in the experiment on T-47D breast; over 100 µM in the experiment on OVCAR-5 ovarian; over 100 µM in the experiment on EKVX NSCLC. Besides, the TGI with DU-145 prostate was over 100 µM; in the experiment with PC-3 prostate it was over 95.9 µM; in the experiment on BT-549 breast it was over 77 µM; in the experiment with T-47D breast, over 100 µM; with OVCAR-5 ovarian, over 100 µM; in the experiment on EKVX NSCLC, over 100 µM.
On to `CN(C)CCOC(=O)Nc1nc2ccc(Sc3ccccc3)cc2[nH]1`, for which the GI50 in the experiment on DU-145 prostate is 4.09 µM; in the experiment on PC-3 prostate it was 3 µM; in the experiment on BT-549 breast it was 3.2 µM; in the experiment with T-47D breast, 4.66 µM; with OVCAR-5 ovarian, 4.22 µM; in the experiment with EKVX NSCLC, 5.75 µM. Besides, the TGI in the experiment with DU-145 prostate was found to be 18.8 µM; with PC-3 prostate, 22.7 µM; with BT-549 breast, 13.5 µM; in the experiment with T-47D breast, 21.4 µM; in the experiment on OVCAR-5 ovarian it was 21.1 µM; in the experiment with EKVX NSCLC, 22.7 µM.
Consider `CCCCCC[C@H](C)NC(=O)c1ccc(Nc2nc3ccccc3c3occc23)cc1`, for which the GI50 with DU-145 prostate was 3.07 µM; in the experiment with PC-3 prostate, 5.36 µM; in the experiment on BT-549 breast, 2.79 µM; in the experiment on T-47D breast it was 1.2 µM; in the experiment on OVCAR-5 ovarian, 5.35 µM; with EKVX NSCLC, 2.2 µM. Besides, the TGI in the experiment with DU-145 prostate was 8.87 µM; with PC-3 prostate, over 100 µM; in the experiment on BT-549 breast, 6.54 µM; in the experiment with T-47D breast it was 6.31 µM; in the experiment with OVCAR-5 ovarian it was over 100 µM; in the experiment on EKVX NSCLC, 5.42 µM.
On to `O=C(O[C@H]1CCN2C[C@H]3C[C@H](CN4C(=O)CCC[C@H]34)[C@@H]2C1)c1ccc(O)cc1`, for which the TGI in the experiment on DU-145 prostate, in the experiment on PC-3 prostate, in the experiment with BT-549 breast, with T-47D breast, with OVCAR-5 ovarian and in the experiment on EKVX NSCLC was over 100 µM each time.
Consider `COc1cnc2c(c1)C(=O)c1c-2n(CCCN2CCNCC2)c(=O)c2cc([N+](=O)[O-])ccc12`, for which the GI50 is 0.278 µM in the experiment with DU-145 prostate; 1.17 µM in the experiment with PC-3 prostate; 1.4 µM in the experiment with BT-549 breast; 1.02 µM in the experiment on OVCAR-5 ovarian; 1.29 µM with EKVX NSCLC. The TGI in the experiment with DU-145 prostate amounted to 1.23 µM; in the experiment with PC-3 prostate it was 2.56 µM; in the experiment with BT-549 breast, 9.7 µM; with OVCAR-5 ovarian it was 2.58 µM; with EKVX NSCLC, 2.69 µM.
On to `COc1cc(/C=C/C(=O)c2c(C)nc3ccccc3c2C)ccc1OCCCN1CCN(C(=O)c2ccco2)CC1`, for which the GI50 with DU-145 prostate was 9.78 µM; in the experiment on PC-3 prostate it was 6.44 µM; with BT-549 breast, 4.86 µM; with T-47D breast, 2.5 µM; in the experiment on OVCAR-5 ovarian it was 18.1 µM; in the experiment on EKVX NSCLC it was 7.76 µM. The TGI with DU-145 prostate was 21.4 µM; with PC-3 prostate, 26.7 µM; in the experiment with BT-549 breast it was 23.3 µM; in the experiment on T-47D breast it was 15 µM; in the experiment on OVCAR-5 ovarian, 32 µM; in the experiment on EKVX NSCLC, 42.6 µM.
Consider `O=C1NC(c2cccc(OCc3ccccc3)c2)Nc2ccccc21` (stereo not given), for which the TGI was over 90.1 µM in the experiment on T-47D breast, over 22.7 µM with OVCAR-5 ovarian and over 54 µM in the experiment on EKVX NSCLC.
As for `Cc1nccc2c3ccc(OCc4cn(-c5ccc(Cl)cc5)nn4)cc3n(CC(C)C)c12`, the GI50 is 11.5 µM in the experiment with DU-145 prostate; 1.52 µM in the experiment with PC-3 prostate; 1.51 µM with BT-549 breast; 1.34 µM in the experiment with T-47D breast; 4.68 µM with OVCAR-5 ovarian; 2.14 µM in the experiment on EKVX NSCLC. In addition, the TGI in the experiment on DU-145 prostate is over 33.3 µM; with PC-3 prostate, over 33.3 µM; in the experiment on BT-549 breast, 7.12 µM; in the experiment on T-47D breast it was 11.3 µM; in the experiment on OVCAR-5 ovarian, 23.2 µM; with EKVX NSCLC, 32.6 µM.
Turning to `O=c1c(Cl)cc2nc3ccccc3sc-2c1Cl`, the TGI in the experiment with DU-145 prostate is 25.8 µM; in the experiment with BT-549 breast, 24.6 µM; with T-47D breast it was over 100 µM; with OVCAR-5 ovarian it was 78.9 µM; with EKVX NSCLC, 14.9 µM.
As for `CCCN1CCC(c2ccc(Nc3nc(Nc4cc(F)ccc4C(N)=O)c4cc[nH]c4n3)c(OC)c2)CC1`, the GI50 with DU-145 prostate was 1.02 µM; in the experiment with PC-3 prostate, 2.69 µM; with BT-549 breast it was 4.16 µM; in the experiment on T-47D breast, 4.14 µM; in the experiment with OVCAR-5 ovarian, 2.78 µM; in the experiment with EKVX NSCLC, 0.725 µM. The TGI in the experiment with DU-145 prostate came out at 4.92 µM; in the experiment with PC-3 prostate, 9.53 µM; with BT-549 breast, 8.19 µM; in the experiment with T-47D breast, 9.17 µM; in the experiment on OVCAR-5 ovarian it was 9.48 µM; with EKVX NSCLC it was 8.18 µM.
Turning to `C/C(=N/Nc1nc(C)cc(=O)[nH]1)C(=O)O`, the TGI in the experiment on DU-145 prostate, with PC-3 prostate, with BT-549 breast, in the experiment with T-47D breast, with OVCAR-5 ovarian and in the experiment on EKVX NSCLC was over 100 µM throughout.
In the case of `COCCn1cc(-c2csc(-c3c[nH]c4ccc(Br)cc34)n2)c2cccnc21`, the GI50 in the experiment with PC-3 prostate is 3.68 µM; in the experiment on BT-549 breast, 4.8 µM; with T-47D breast, 1.97 µM; with OVCAR-5 ovarian, 4.83 µM; in the experiment with EKVX NSCLC it was 2.05 µM. Moreover, the TGI with PC-3 prostate is over 100 µM; in the experiment with BT-549 breast it was 27 µM; in the experiment on T-47D breast it was 21 µM; with OVCAR-5 ovarian it was over 100 µM; with EKVX NSCLC it was over 100 µM.
As to `C[C@@H](Oc1cc(-n2cnc3ccc(OC[C@@H](O)CO)cc32)sc1C(N)=O)c1ccccc1Cl`, the GI50 was 0.126 µM with PC-3 prostate; 0.194 µM in the experiment on BT-549 breast; 1.22 µM in the experiment with T-47D breast; 0.414 µM with OVCAR-5 ovarian; 1.75 µM in the experiment on EKVX NSCLC. Further, the TGI in the experiment with PC-3 prostate was over 25 µM; with BT-549 breast it was 11.1 µM; in the experiment with T-47D breast, over 25 µM; in the experiment on OVCAR-5 ovarian, over 25 µM; in the experiment on EKVX NSCLC, over 25 µM.
Take `COc1cc(/C=C2\C[C@H]3[C@@H]4CC=C5C[C@@H](OC(C)=O)CC[C@]5(C)[C@H]4CC[C@]3(C)[C@H]2OC(C)=O)ccc1OCCN1CCCC1`: the GI50 with DU-145 prostate is 1.3 µM; with PC-3 prostate, 8 µM; in the experiment with T-47D breast, 12.4 µM; in the experiment on OVCAR-5 ovarian, 10 µM. Moreover, the TGI in the experiment on DU-145 prostate turned out to be 9.69 µM; with PC-3 prostate it was 20.4 µM; with T-47D breast, 32 µM; in the experiment on OVCAR-5 ovarian it was 20.1 µM.
Consider `[CH3][Sn]([CH3])([CH3])[O][N+](=O)[O-]`, for which the GI50 in the experiment on DU-145 prostate is over 10 µM; in the experiment with PC-3 prostate, over 10 µM; in the experiment on T-47D breast it was 4.09 µM; in the experiment on OVCAR-5 ovarian, 6.73 µM; in the experiment with EKVX NSCLC it was over 10 µM. Besides, the TGI with DU-145 prostate, in the experiment on PC-3 prostate, in the experiment on T-47D breast, in the experiment with OVCAR-5 ovarian and with EKVX NSCLC was over 10 µM each time.
